Numbers after ± are expanded uncertainties.
Experiments:
[1] = xn = mol fraction of the nth substance listed; details: Liquid, x1 = 1; for viscosity: 2 kPa, Falling or rolling sphere viscometry; for speed of sound / mass density: 100 kPa; for speed of sound: Single path-length method; for mass density: Vibrating tube method
[2] = molar heat capacity at constant pressure; details: 100 kPa, Liquid, Extra sensitive DSC
[3] = Liquid; for viscosity: 2 kPa, Falling or rolling sphere viscometry; for speed of sound / mass density: 100 kPa; for speed of sound: Single path-length method; for mass density: Vibrating tube method

CCCC[n+]1ccn(C)c1.O=S(=O)([N-]S(=O)(=O)C(F)(F)F)C(F)(F)F + CNc1ccccc1
[1]
Details | mass density [kg/m3] | speed of sound [m/s] | viscosity [mPa·s]
298.15 K | 1436.62 ± 1.1 | 1227.9 ± 1.1 | 49.24 ± 7.4
303.15 K | 1431.8 ± 1.1 | 1216.8 ± 1.1 | 40 ± 6.5
308.15 K | 1426.98 ± 1.1 | 1205.8 ± 1.1 | 33.02 ± 5
313.15 K | 1422.16 ± 1.1 | 1195 ± 1.1 | 27.66 ± 3.9
318.15 K | 1417.34 ± 1.1 | 1184.2 ± 1.1 | 23.47 ± 3.1
323.15 K | 1412.52 ± 1.1 | 1173.6 ± 1.1 | 20.15 ± 2.8

CNc1ccccc1 [N-methylaniline]
Details | mass density, [3] [kg/m3] | molar heat capacity at constant pressure, [2] [J/K/mol] | speed of sound, [3] [m/s] | viscosity, [3] [mPa·s]
298.15 K | 982.7 ± 1.6 | 207.12 ± 9.6 | 1564.5 ± 0.7 | 1.94 ± 0.62
303.15 K | 978.59 ± 1.6 | 210.92 ± 9.8 | 1546.1 ± 0.7 | 1.73 ± 0.62
308.15 K | 974.47 ± 1.6 | 214.73 ± 10 | 1528.3 ± 0.7 | 1.55 ± 0.61
313.15 K | 970.36 ± 1.6 | 218.53 ± 10 | 1511.5 ± 0.7 | 1.4 ± 0.61
318.15 K | 966.24 ± 1.6 | 222.37 ± 10 | 1492.8 ± 0.7 | 1.27 ± 0.61
323.15 K | 962.13 ± 1.6 | 225.88 ± 10 | 1476.2 ± 0.7 | 1.16

CCCCn1cc[n+](C)c1.F[P-](F)(F)(F)(F)F [1-butyl-3-methylimidazolium hexafluorophosphate] + CNc1ccccc1
[1]
Details | mass density [kg/m3] | speed of sound [m/s] | viscosity [mPa·s]
298.15 K | 1367.24 ± 1.1 | 1443.7 ± 3.2 | 272.86 ± 57
303.15 K | 1363.08 ± 1.1 | 1431.9 ± 3.2 | 204.1 ± 48
308.15 K | 1358.91 ± 1.1 | 1420.1 ± 3.2 | 155.7 ± 34
313.15 K | 1354.74 ± 1.1 | 1408.5 ± 3.2 | 120.9 ± 24
318.15 K | 1350.58 ± 1.1 | 1397.1 ± 3.2 | 95.39 ± 18
323.15 K | 1346.41 ± 1.1 | 1385.9 ± 3.2 | 76.37 ± 15

CCCCn1cc[n+](C)c1.F[P-](F)(F)(F)(F)F [1-butyl-3-methylimidazolium hexafluorophosphate]
Details | mass density, [3] [kg/m3] | molar heat capacity at constant pressure, [2] [J/K/mol] | speed of sound, [3] [m/s] | viscosity, [3] [mPa·s]
298.15 K | 1367.24 ± 1.1 | 407.08 ± 19 | 1443.7 ± 3.2 | 272.86 ± 56
303.15 K | 1363.08 ± 1.1 | 410.01 ± 19 | 1431.9 ± 3.2 | 204.1 ± 47
308.15 K | 1358.91 ± 1.1 | 412.77 ± 19 | 1420.1 ± 3.2 | 155.7 ± 33
313.15 K | 1354.74 ± 1.1 | 415.44 ± 19 | 1408.5 ± 3.2 | 120.9 ± 24
318.15 K | 1350.58 ± 1.1 | 418.26 ± 19 | 1397.1 ± 3.2 | 95.39 ± 18
323.15 K | 1346.41 ± 1.1 | 421.21 ± 20 | 1385.9 ± 3.2 | 76.37 ± 15

CCCC[n+]1ccn(C)c1.O=S(=O)([N-]S(=O)(=O)C(F)(F)F)C(F)(F)F
Details | mass density, [3] [kg/m3] | molar heat capacity at constant pressure, [2] [J/K/mol] | speed of sound, [3] [m/s] | viscosity, [3] [mPa·s]
298.15 K | 1436.62 ± 1.7 | 567.22 ± 26 | 1227.9 ± 1.1 | 49.24 ± 7.4
303.15 K | 1431.8 ± 1.7 | 569.85 ± 26 | 1216.8 ± 1.1 | 40 ± 6.5
308.15 K | 1426.98 ± 1.7 | 572.64 ± 27 | 1205.8 ± 1.1 | 33.02 ± 5
313.15 K | 1422.16 ± 1.7 | 575.47 ± 27 | 1195 ± 1.1 | 27.66 ± 3.9
318.15 K | 1417.34 ± 1.7 | 578.38 ± 27 | 1184.2 ± 1.1 | 23.47 ± 3.1
323.15 K | 1412.52 ± 1.7 | 581.52 ± 27 | 1173.6 ± 1.1 | 20.15 ± 2.8

Reference: the NIST ThermoML archive (doi:10.1021/acs.jced.8b01095)
